The text below walks through data of patent US10292390B2, “Inhibition and dispersion of bacterial biofilms with 2-aminobenzimidazole derivatives” (WISCONSIN ALUMNI RESEARCH FOUNDATION, priority 2011, dated 2019).

In general, IC50 refers to the concentration that inhibits the measured activity by half.

Read-outs that look alike come from different tables or passages of the source. Some results are limits rather than exact numbers.

Data set [1] has as its system P. aeruginosa PAO1 biofilm. Nature of the data set: crystal violet static biofilm inhibition assay. Particulars: for IC50: Pseudomonas aeruginosa, PAO1. The format is cell-based, Pseudomonas aeruginosa. The method, then:
Stilbenes 1, 2, and 4a-b were tested for inhibition of biofilm formation in a wild-type P. aeruginosa strain (PAO1) at 500 μM using standard static biofilm growth assays.
Biofilms were grown in a modified M9 minimal media in 96-well microtiter plates, and crystal violet staining of the surface-associated biomass was used to quantify biofilm growth at 12 and 24 h (see The Examples).
A modified version of the widely used crystal violet (CV) microtiter plate biofilm assay, first described by Christensen et al. and later popularized by O'Toole et al., [57] was used in this study and is described in detail below.
Compounds to be evaluated for biofilm modulatory activity were added to the assay microtiter plates by means of a “solvent evaporation” delivery. This delivery method involves preparation of compound stock solutions, addition of stocks to microtiter plates at appropriate volumes to obtain target molar quantities per well, evaporation of the solvent, and re-solubilization of the compound in the final assay medium upon inoculum addition. This delivery method was adopted to avoid the biofilm inhibitory effects observed with an “organic solvent-to-solution” delivery method (e.g., DMSO-to-media; data not shown), which is more commonly done in small molecule screens. EtOH was chosen as the solvent for solvent evaporation delivery in this study based on the chemical resistance limitations of polystyrene microtiter plates. Prior to each experiment, EtOH stock solutions of compounds being evaluated were prepared, diluted, and added to microtiter plates at varied volumes to obtain a target final concentration per well upon inoculum addition. Plates were incubated at 37° C. to evaporate EtOH and sterilized in a Baker SterilGARD III Advance Biological Safety Cabinet by UV-C germicidal irradiation for 30 min (lids removed). EtOH only was added to wells designated as “no compound” positive controls (Pos. Con.) and “no bacteria” negative controls (note, controls lacking bacteria yielded no significant staining in the CV assay (data not shown)). The outer wells were never used for test samples as evaporation and significant deviations in growth were observed; thus, outer wells were filled with sterile 18 MΩ H2O to minimize these effects.
Bacterial samples for biofilm assessment were prepared by first streaking a freezer stock of P. aeruginosa PAO1 on an LB/agar plate and incubating at 37° C. for ˜16 h. Single colonies were selected and used to inoculate LB medium (10 mL) in a 25 mL Erlenmeyer flask. The culture was grown on an incubator-shaker (200 rpm) at 37° C. for ˜16 h to an OD600 of ˜1.0. Overnight cultures were gently decanted into falcon tubes to minimize transfer of biofilm produced during overnight growth. An inoculating culture was prepared by centrifuging an aliquot of overnight culture at 3,000 rpm for 10 min, removal of the supernatant, and then re-suspending the pellet in 95:5 M9+:LB at 10-fold the initial volume (effecting a 1-in-10 dilution; OD600 ˜0.1-0.2). Using a multi-channel pipette, this culture was added to test microtiter plates in 200 μL aliquots. The well contents were mixed using a 10 μL multi-channel pipette in a swirling motion; insoluble compound samples were noted and later excluded from the data set as needed.
Plates were covered with the provided lid and incubated statically at 37° C. for 12-24 h. Maximal biofilm formation is obtained at 24 h, after which the amount of biofilm declines unless fresh nutrients are provided. After incubation, the OD600 was measured, and the bacterial suspension was removed by inverting and shaking the plate over a waste pan and then taping on a paper towel (process termed “dumping”). Non-biofilm associated biomaterial was removed by adding 225 μL PBS and dumping (process termed “washing”) and then repeating this washing process. Biofilm was fixed to the microtiter plates by uncovering the plate and thermally dehydrating at 37° C. […]

For the next data set, the system named is Gram-positive bacteria. Particulars: WO 2010/144686 (7); ref. 34 (18); cited from earlier work.
In the next data set the test system is COS-7 cells. Nature of the data set: fluorescence-based live/dead cytotoxicity assay. The format is cell-based. Particulars: 24 hrs, live/dead staining. How it is done:
Experiments to characterize the toxicity of exemplary compound 21 in a model mammalian cell line were conducted by incubating COS-7 African Green Monkey kidney cells (American Type Culture Collection, Manassas, Va.), a fibroblast-like mammalian cell line, in the presence of varying amounts of compound 21 and characterizing resulting levels of cell death using a standard fluorescence-based live/dead assay. Cells were seeded in 96-well plates by adding 200 μL of a suspension containing 50,000 cells/mL in cell culture media (Gibco® DMEM supplemented with 10% (v/v) fetal bovine serum, 100 units/mL penicillin, and 100 μg/mL streptomycin) in individual wells of a black-walled, clear-bottomed 96-well cell culture plate (Costar 3603). […] Fluorescence microscopy images of the wells were acquired using an Olympus IX70 microscope and Metavue version 7.1.2.0 software package (Molecular Devices, Toronto, Canada). Images were analyzed using Image J 1.43u (National Institutes of Health; Washington, D.C.). Live and dead cell results were also analyzed by averaging the mean fluorescence from a minimum of six images taken from three replicate samples and normalized to untreated (live control) and methanol-treated (dead control) wells (see FIG. 20).

The mark [2] stands for this setting: 12 h incubation, CV assay, read-out: 12 h biofilm IC50.
Where [3] appears, read: 24 h incubation, CV assay, read-out: 24 h biofilm IC50.
Setting [4] is: added exogenously to solution, read-out: IC50 for biofilm inhibition.
Where [5] appears, read: 24 h, read-out: IC50 for biofilm inhibition.
[6] abbreviates: Table 1, crystal violet, read-out: IC50, P. aeruginosa PAO1 biofilm inhibition.

With `Nc1nc2ccccc2[nH]1` [Compound 7, 2-aminobenzimidazole], the “inhibition of biofilm formation” value in data set [1] (24 h) is 94%. In addition, the IC50 in data set [1] (setting [2]) came to 50.5 µM; in data set [1] (setting [3]), 46.8 µM; in data set [1] (setting [4]), 47 µM; in data set [1] (setting [5]) it was 47 µM; in data set [1] (setting [6]), 47 µM. In addition, the “biofilm inhibition in Gram-positive bacteria as reported” value in the data set on Gram-positive bacteria is “no inhibition of biofilm formation”.

With `Cc1cc2nc(N)[nH]c2cc1C` [Compound 21, 5,6-Dimethyl-2-aminobenzimidazole], the “concentrations at which inhibitor (not activator) of biofilm formation” value in data set [1] (P. aeruginosa) is given as at most 3.2 mM. Also, the IC50 is 4.3 µM in data set [1] (setting [2]); 4 µM in data set [1] (setting [3]); 4 µM in data set [1] (setting [4]); 4 µM in data set [1] (setting [5]); 4 µM in data set [1] (setting [6]). Also, the “fold more active than parent compound 7” value in data set [1] (biofilm inhibition IC50) is reported as about 10 fold. The “concentrations at which not substantially cytotoxic” value with COS-7 cells is reported as “below 0.25 mM”.
